# ChEMBL document CHEMBL5154728, “Design and synthesis of novel quinazolinone derivatives as anti-HBV agents with TLR8 agonist effect” (Eur J Med Chem, 2022)
# pIC50: −log10 of the molar value.
# Experiments:
# [1] = Antiviral activity against Hepatitis B virus infected in human HepG2 2.2.15 cells assessed as inhibition of DNA replication; type: functional, cell-based
# [2] = Cytotoxicity against human HepG2 2.2.15 cells infected with Hepatitis B virus assessed as reduction in cell growth by CCK8 assay; type: toxicity, cell-based
# [3] = Selectivity index, ratio of CC50 for human HepG2.2.2.15 cells to IC50 for Hepatitis B virus infected in human HepG2.2.2.15 cells; type: toxicity, cell-based; conditions: read-out: Selectivity Index
# [4] = Antiviral activity against lamivudine/entecavir- resistant Hepatitis B virus infected in human HepG2 A64 cells assessed as inhibition of DNA replication; type: functional, cell-based
# Hepatitis B virus [5] = experiment: Antiviral activity against lamivudine/entecavir-resistant Hepatitis B virus infected in human HepG2 A64 cells assessed as inhibition of DNA replication at 1 uM incubated for 72 hrs by RT PCR analysis; type: functional, organism-based; conditions: for pIC50: HepG2.A64, 72 h; for inhibition at 1 µM: HepG2.A64, dose 1 µM, time 72 hrs
# Hepatitis B virus [6] = experiment: Antiviral activity against wild type Hepatitis B virus infected in human HepG2.2.2.15 cells assessed as inhibition of DNA replication at 1 uM incubated for 72 hrs by RT PCR analysis; type: functional
# [7] = Selectivity index, ratio of CC50 for human HepG2.2.2.15 cells to IC50 for lamivudine/entecavir-resistant Hepatitis B virus infected in human HepG2 A64 cells; type: toxicity, cell-based; conditions: HepG2.2.2.15 cells (CC50), read-out: Selectivity Index
# [8] = molecular target: T1, Toll-like receptor 8 (Homo sapiens) (UniProt Q9NR97); experiment: Agonist activity at human TLR8 expressed in HEK293T cells co-transfected with NFKappaB luciferase and renilla plasmids assessed as NF-kappaB activation measured after 48 hrs by dual-luciferase reporter gene assay; type: cell-based; conditions: filed as agonist, DDE = dose-dependent effect
# T1 sequence (whole entry): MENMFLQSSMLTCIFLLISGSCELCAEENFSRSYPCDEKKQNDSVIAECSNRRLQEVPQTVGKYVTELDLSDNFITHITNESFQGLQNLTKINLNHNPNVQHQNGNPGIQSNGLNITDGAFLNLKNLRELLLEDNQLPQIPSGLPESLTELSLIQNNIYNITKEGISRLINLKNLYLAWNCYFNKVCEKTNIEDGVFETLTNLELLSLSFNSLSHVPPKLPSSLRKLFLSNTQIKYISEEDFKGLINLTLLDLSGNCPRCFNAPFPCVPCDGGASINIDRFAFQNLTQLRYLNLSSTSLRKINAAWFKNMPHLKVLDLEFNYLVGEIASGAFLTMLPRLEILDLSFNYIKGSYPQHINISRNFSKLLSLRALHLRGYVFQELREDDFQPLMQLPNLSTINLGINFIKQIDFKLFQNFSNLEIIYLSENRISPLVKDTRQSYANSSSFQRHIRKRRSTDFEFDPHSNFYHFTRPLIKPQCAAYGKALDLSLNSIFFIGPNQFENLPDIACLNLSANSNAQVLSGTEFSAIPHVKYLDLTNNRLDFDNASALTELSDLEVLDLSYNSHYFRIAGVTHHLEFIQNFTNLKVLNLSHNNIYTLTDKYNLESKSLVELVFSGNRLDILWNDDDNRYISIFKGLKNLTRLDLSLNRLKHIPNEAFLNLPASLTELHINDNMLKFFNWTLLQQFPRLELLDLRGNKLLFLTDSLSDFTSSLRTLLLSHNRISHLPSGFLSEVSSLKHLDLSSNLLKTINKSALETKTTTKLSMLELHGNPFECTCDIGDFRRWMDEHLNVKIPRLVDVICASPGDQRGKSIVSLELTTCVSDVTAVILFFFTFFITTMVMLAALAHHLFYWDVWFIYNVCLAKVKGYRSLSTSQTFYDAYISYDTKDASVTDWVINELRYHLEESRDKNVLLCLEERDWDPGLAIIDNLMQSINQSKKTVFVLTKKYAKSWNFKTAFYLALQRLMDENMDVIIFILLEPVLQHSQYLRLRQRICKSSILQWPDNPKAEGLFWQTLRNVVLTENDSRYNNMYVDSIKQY
Structure (SMILES),pIC50 [1],CC50 [2] [nM],selectivity ratio [3],other results
CN1CCN(CCCOc2ccc3nc(SCc4cccc(F)c4)n(Cc4ccco4)c(=O)c3c2)CC1,6.00,4220,> 4.26,
Nc1nccc(OCCCOc2ccc3nc(SCc4ccccc4)n(Cc4ccccc4)c(=O)c3c2)n1,,> 10000,,
CN1CCN(CCCOc2ccc3nc(SCc4ccc(F)cc4)n(Cc4ccco4)c(=O)c3c2)CC1,,2900,,
COc1ccccc1CSc1nc2ccc(OCCCOc3ccnc(N)n3)cc2c(=O)n1Cc1ccco1,6.82,> 10000,> 66.7,pIC50 [4]: 7.00; pIC50 (Hepatitis B virus [5]): 7.00; inhibition at 1 µM (Hepatitis B virus [5]): 77.3%; inhibition at 1 µM (Hepatitis B virus [6]): 80.9%; selectivity ratio [7]: > 100; Activity [8]: Dde
Nc1nccc(OCCOc2ccc3nc(SCc4ccccc4)n(Cc4ccco4)c(=O)c3c2)n1,,1250,,
O=c1c2cc(OCCCN3CCC(O)CC3)ccc2nc(SCc2ccccc2)n1Cc1ccco1,6.15,> 10000,> 14.3,
Nc1nccc(OCCCOc2ccc3nc(SCc4ccc(F)cc4)n(Cc4ccccc4)c(=O)c3c2)n1,,> 10000,,
Nc1nccc(OCCCOc2ccc3nc(SCc4ccccc4)n(CC4CCCCC4)c(=O)c3c2)n1,,> 10000,,
CN1CCN(CCCOc2ccc3nc(SCc4ccccc4)n(Cc4ccco4)c(=O)c3c2)CC1,6.20,> 10000,> 15.9,
CCN(CC)CCOc1ccc2nc(SCc3ccccc3)n(Cc3cccs3)c(=O)c2c1,6.08,> 10000,22.9,
O=c1c2cc(OCCCN3CCC(O)CC3)ccc2nc(SCc2cccc(F)c2)n1Cc1ccco1,6.06,1830,> 2.17,
COc1ccccc1CSc1nc2ccc(OCCCN3CCN(C)CC3)cc2c(=O)n1Cc1ccco1,,> 10000,,
Nc1nccc(OCCCCOc2ccc3nc(SCc4ccccc4)n(Cc4ccco4)c(=O)c3c2)n1,,> 10000,,
Nc1nccc(OCCCOc2ccc3nc(SCc4ccccc4)n(Cc4ccco4)c(=O)c3c2)n1,6.51,> 10000,> 32.2,pIC50 [4]: 6.68; pIC50 (Hepatitis B virus [5]): 6.62; inhibition at 1 µM (Hepatitis B virus [5]): 75.3%; inhibition at 1 µM (Hepatitis B virus [6]): 79.3%; selectivity ratio [7]: > 41.7
O=c1c2cc(OCCCN3CCC(O)CC3)ccc2nc(SCc2ccc(F)cc2)n1Cc1ccco1,,> 10000,,
Nc1nccc(OCCCOc2ccc3nc(SCc4cccc(F)c4)n(Cc4ccccc4)c(=O)c3c2)n1,,> 10000,,
Nc1ccn([C@@H]2CS[C@H](CO)O2)c(=O)n1 [LAMIVUDINE],> 7.00,> 100000,> 1000,pIC50 [4]: < 4.00
Nc1nccc(OCCCOc2ccc3nc(SCc4ccccc4)n(Cc4cccs4)c(=O)c3c2)n1,,> 10000,,
COc1ccccc1CSc1nc2ccc(OCCCN3CCC(O)CC3)cc2c(=O)n1Cc1ccco1,,> 10000,,
